Measured values taken from patent US11780849B2, “Imino sulfanone inhibitors of ENPP1” (Volastra Therapeutics, Inc., priority 2020, dated 2023).

target: ENPP-1 ECD (Homo sapiens (Human), UniProt P22413); test: Assay 2: inhibition of ENPP1 hydrolysis of 2′,3′-cGAMP (AMP-Glo, […] enzyme); details: Assay 2 (KI), ENPP1 hydrolysis of 2′,3′-cGAMP, AMP-Glo, […] ENPP-1, 24 μM cGAMP
Sequence (P22413 98-925): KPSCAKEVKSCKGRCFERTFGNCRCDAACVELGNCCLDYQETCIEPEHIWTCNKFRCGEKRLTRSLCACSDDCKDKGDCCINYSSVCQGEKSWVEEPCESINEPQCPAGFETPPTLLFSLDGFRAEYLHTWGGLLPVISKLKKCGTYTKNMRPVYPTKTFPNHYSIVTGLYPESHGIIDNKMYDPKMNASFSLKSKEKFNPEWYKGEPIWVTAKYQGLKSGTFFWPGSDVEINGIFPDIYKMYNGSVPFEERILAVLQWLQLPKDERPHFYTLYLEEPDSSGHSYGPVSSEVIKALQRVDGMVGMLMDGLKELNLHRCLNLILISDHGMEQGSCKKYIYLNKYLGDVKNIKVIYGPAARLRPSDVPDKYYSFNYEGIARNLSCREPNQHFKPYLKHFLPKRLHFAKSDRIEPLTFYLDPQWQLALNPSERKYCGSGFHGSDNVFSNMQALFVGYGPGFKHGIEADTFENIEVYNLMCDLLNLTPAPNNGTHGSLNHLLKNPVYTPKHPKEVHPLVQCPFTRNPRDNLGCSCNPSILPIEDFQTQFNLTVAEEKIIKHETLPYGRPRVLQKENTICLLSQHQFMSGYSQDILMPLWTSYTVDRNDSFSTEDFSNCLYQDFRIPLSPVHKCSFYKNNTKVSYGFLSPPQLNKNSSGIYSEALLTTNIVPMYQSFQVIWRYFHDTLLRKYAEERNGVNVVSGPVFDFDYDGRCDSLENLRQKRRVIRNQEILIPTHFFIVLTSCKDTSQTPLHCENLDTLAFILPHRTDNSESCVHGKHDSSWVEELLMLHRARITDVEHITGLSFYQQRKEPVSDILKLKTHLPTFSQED
Procedure: Assay 2: Compared to the conditions in Assay 1, this assay has a larger dynamic range and ensures the system is under steady-state conditions by reducing the enzyme concentration in the assay.
Test compounds were plated in a 3× dilution scheme in a 384 well plate. […] AMP Detection solution (10 μL) was added to each well, the plate centrifuged and incubated for 60 min.

Row | Structure (SMILES) | Ki
1 | COc1cc2ncnc(N3CCC(CS(C)(=N)=O)CC3)c2cc1OC (stereo not drawn) [Compound 147, {[1-(6,7-dimethoxyquinazolin-4-yl)piperidin-4-yl]methyl}(imino)methyl-λ^6-sulfanone] | 3 to 300 nM
2 | COc1ccc2c(N3CCC4(CC3)CCN(S(C)(=N)=O)C4)ccnc2n1 (stereo not drawn) [Compound 158, imino[8-(7-methoxy-1,8-naphthyridin-4-yl)-2,8-diazaspiro[4.5]decan-2-yl]methyl-λ^6-sulfanone] | < 3 nM
3 | COc1cc2ncnc(N3CCC(CCCS(C)(=N)=O)CC3)c2cc1OC (stereo not drawn) [Compound 145, {3-[1-(6,7-dimethoxyquinazolin-4-yl)piperidin-4-yl]propyl}(imino)methyl-λ^6-sulfanone] | 3 to 300 nM
4 | COCCS(=N)(=O)c1ccc(Oc2ccnc3cc(OC)ccc23)cc1 (stereo not drawn) [Compound 122, imino(2-methoxyethyl){4-[(7-methoxyquinolin-4-yl)oxy]phenyl}-λ^6-sulfanone] | < 3 nM
5 | COc1cc2ncnc(OCC3CCN(S(C)(=N)=O)CC3)c2cc1OC (stereo not drawn) [Compound 164, (4-{[(6,7-dimethoxyquinazolin-4-yl)oxy]methyl}piperidin-1-yl)(imino)methyl-λ^6-sulfanone] | 3 to 300 nM

same assay, conditions: Assay 2 (KI), inhibition of ENPP1 hydrolysis of 2′,3′-cGAMP; no unit in Table 18 (Table 17 legend for this assay uses nM)

Row | Structure (SMILES) | Ki
6 | COc1ccc2c(-n3cc(CCS(C)(=N)=O)cn3)ccnc2c1 (stereo not drawn) [Compound 234, imino({2-[1-(7-methoxyquinolin-4-yl)-1H-pyrazol-4-yl]ethyl})methyl-λ^6-sulfanone] | > 500 nM
7 | COc1ccc2c(O[C@H]3CC[C@H](S(C)(=N)=O)CC3)ccnc2c1 (stereo partly drawn) [Compound 243, imino(methyl)[(1r,4r)-4-[(7-methoxyquinolin-4-yl)oxy]cyclohexyl]-λ^6-sulfanone] | 4.3 nM
8 | COc1ccc2c(Oc3ccc(S(C)(=N)=O)cc3)ncnc2c1 (stereo not drawn) [Compound 167, imino({4-[(7-methoxyquinazolin-4-yl)oxy]phenyl})methyl-λ^6-sulfanone] | 7.9 nM
9 | COc1cc2ncnc(N3CCC(CS(C)(=N)=O)CC3)c2cc1OC (stereo not drawn) [Compound 147, {[1-(6,7-dimethoxyquinazolin-4-yl)piperidin-4-yl]methyl}(imino)methyl-λ^6-sulfanone] | 9.9 nM
10 | COc1ccc2c(O[C@H](C)c3cccc(S(C)(=N)=O)c3)ccnc2c1 (stereo partly drawn) [Compound 178, imino({3-[(1R)-1-[(7-methoxyquinolin-4-yl)oxy]ethyl]phenyl})methyl-λ^6-sulfanone] | 2.6 nM
11 | COc1cc2ncnc(N3CC4(CCN(S(C)(=N)=O)CC4)C3)c2cc1OC (stereo not drawn) [Compound 206, [2-(6,7-dimethoxyquinazolin-4-yl)-2,7-diazaspiro[3.5]nonan-7-yl](imino)methyl-λ^6-sulfanone] | 17 nM
12 | COc1cc2nccc(-c3cccc(CCS(C)(=N)=O)c3)c2cc1OC (stereo not drawn) [Compound 204, {2-[3-(6,7-dimethoxyquinolin-4-yl)phenyl]ethyl}(imino)methyl-λ^6-sulfanone] | 28 nM
13 | COc1ccc2c(OCc3cncc(S(C)(=N)=O)c3)ccnc2c1 (stereo not drawn) [Compound 172, imino(5-{[(7-methoxyquinolin-4-yl)oxy]methyl}pyridin-3-yl)methyl-λ^6-sulfanone] | 11 nM
14 | COc1ccc2c(N3CCC4(CC3)CCN(S(C)(=N)=O)C4)ccnc2n1 (stereo not drawn) [Compound 158, imino[8-(7-methoxy-1,8-naphthyridin-4-yl)-2,8-diazaspiro[4.5]decan-2-yl]methyl-λ^6-sulfanone] | 0.44 nM
15 | COc1cc2nncc(N3CCC4(CC3)CCN(S(C)(=N)=O)C4)c2cc1Cl (stereo not drawn) [Compound 219, [8-(6-chloro-7-methoxycinnolin-4-yl)-2,8-diazaspiro[4.5]decan-2-yl](imino)methyl-λ^6-sulfanone] | 0.091 nM
16 | COc1ccc2c(COc3cccc(S(C)(=N)=O)c3)ccnc2c1 (stereo not drawn) [Compound 232, imino({3-[(7-methoxyquinolin-4-yl)methoxy]phenyl})methyl-λ^6-sulfanone] | 3.3 nM
17 | COc1cc2ncnc(N3CCC(CCCS(C)(=N)=O)CC3)c2cc1OC (stereo not drawn) [Compound 145, {3-[1-(6,7-dimethoxyquinazolin-4-yl)piperidin-4-yl]propyl}(imino)methyl-λ^6-sulfanone] | 8.7 nM
18 | COc1cc2ncnc(N3CCC4(CCN(S(C)(=N)=O)C4)C3)c2cc1OC (stereo not drawn) [Compound 216, [7-(6,7-dimethoxyquinazolin-4-yl)-2,7-diazaspiro[4.4]nonan-2-yl](imino)methyl-λ^6-sulfanone] | 5.5 nM
19 | COc1ccc2c(OCC3CCS(=N)(=O)CC3)ccnc2c1 (single isomer, unassigned) [Compound 107b, 4-[(1-imino-1-oxido-3,4,5,6-tetrahydro-2H-thiopyran-4-yl)methoxy]-7-methoxy-quinoline] | 74 nM
20 | COc1cccc2c(N3CCC(O)(CS(C)(=N)=O)C4(CC4)C3)ncnc12 (stereo not drawn) [Compound 194, {[8-hydroxy-5-(8-methoxyquinazolin-4-yl)-5-azaspiro[2.5]octan-8-yl]methyl}(imino)methyl-λ^6-sulfanone] | 40 nM
21 | COc1cc2ncnc(OCC3CCS(=N)(=O)CC3)c2cc1OC (stereo not drawn) [Compound 171, 4-{[(6,7-dimethoxyquinazolin-4-yl)oxy]methyl}-1-imino-1λ^6-thian-1-one] | 49 nM
22 | COc1ccc2c(OC3CCN(S(C)(=N)=O)CC3)ccnc2c1 (stereo not drawn) [Compound 235, imino({4-[(7-methoxyquinolin-4-yl)oxy]piperidin-1-yl})methyl-λ^6-sulfanone] | 8 nM
23 | COc1ccc2c(OCC3CCS(=N)(=O)CC3)ccnc2c1 (single isomer, unassigned) [Compound 107a, 4-[(1-imino-1-oxido-3,4,5,6-tetrahydro-2H-thiopyran-4-yl)methoxy]-7-methoxy-quinoline] | 27 nM
24 | COc1ccc2c(OCC3CCS(=N)(=O)CC3)ccnc2c1 (stereo not drawn) [Compound 107, 4-[(1-imino-1-oxido-3,4,5,6-tetrahydro-2H-thiopyran-4-yl)methoxy]-7-methoxy-quinoline] | 80 nM
25 | COCCS(=N)(=O)c1ccc(Oc2ccnc3cc(OC)ccc23)cc1 (stereo not drawn) [Compound 122, imino(2-methoxyethyl){4-[(7-methoxyquinolin-4-yl)oxy]phenyl}-λ^6-sulfanone] | 1.6 nM
26 | COc1cc2ncnc(OCC3CCN(S(C)(=N)=O)CC3)c2cc1OC (stereo not drawn) [Compound 164, (4-{[(6,7-dimethoxyquinazolin-4-yl)oxy]methyl}piperidin-1-yl)(imino)methyl-λ^6-sulfanone] | 97 nM

same assay, conditions: read-out: Assay 2 (KI); ENPP1 hydrolysis of 2′,3′-cGAMP, AMP-Glo, […] ENPP-1, 24 μM cGAMP

Row | Structure (SMILES) | Ki
27 | COc1cc2nccc(N3CCC4(CC3)CCN([S@](C)(=N)=O)C4)c2cc1Cl [Compound 156b] | < 3 nM
28 | COc1cc2nccc(N3CCC(CC[S@](C)(=N)=O)CC3)c2cc1Cl [Compound 141b] | 3 to 300 nM

same assay, conditions: read-out: Assay 2 (KI); inhibition of ENPP1 hydrolysis of 2′,3′-cGAMP; no unit in Table 18 (Table 17 legend for this assay uses nM)

Row | Structure (SMILES) | Ki
29 | COc1cc2nccc(NCc3cccc(S(C)(=N)=O)c3)c2cc1F (stereo not drawn) [Compound 192, (3-{[(6-fluoro-7-methoxyquinolin-4-yl)amino]methyl}phenyl)(imino)methyl-λ^6-sulfanone] | 0.58 nM
30 | COc1cccc2c(N3CCC(O)(C[S@](C)(=N)=O)CC3)c(C#N)cnc12 [Compound 198b] | 1.2 nM
31 | COc1cc(F)cc2c(N3CCC(CS(C)(=N)=O)CC3)ncnc12 (stereo not drawn) [Compound 183b] | > 150 nM
32 | COc1cc(F)cc2c(N3CCC(C[S@@](C)(=N)=O)CC3)ncnc12 [Compound 183a] | 2.9 nM
33 | COc1cccc2c(N3CCC(C[S@@](C)(=N)=O)CC3)c(C#N)cnc12 [Compound 179a] | 9.1 nM
34 | COc1cc2nccc(OC[C@H]3CCN([S@](C)(=N)=O)C3)c2cc1F [Compound 230a] | 11 nM
35 | COc1cc2nccc(N3CCC4(CC3)CCN([S@](C)(=N)=O)C4)c2cc1Cl [Compound 156b] | 2.9 nM
36 | COc1cccc2c(N3CC4(CCN([S@](C)(=N)=O)C4)C3)c(C#N)cnc12 [Compound 222b] | 1.3 nM
37 | COc1cc2nncc(N3CCC4(CC3)CCN([S@@](C)(=N)=O)C4)c2cc1OC [Compound 211b] | 0.5 nM
38 | COc1cccc2c(N3CCC(O)(C[S@@](=N)(=O)C4CC4)CC3)ncnc12 [Compound 193a] | 54 nM
39 | CC[S@](=N)(=O)CC1(O)CCN(c2ncnc3c(OC)cccc23)CC1 [Compound 195b] | 7.7 nM
40 | COc1cccc2c(N3CCC(C[S@](C)(=N)=O)CC3)ncnc12 [Compound 146b] | 66 nM
41 | COc1cc2nncc(N3CCC4(CC3)CCN([S@@](C)(=N)=O)C4)c2cc1Cl [Compound 219b] | 2 nM
42 | COc1cc2nccc(N3CCC4(CC3)CCN([S@](=N)(=O)C3CC3)C4)c2cc1F [Compound 218b] | 1.5 nM
43 | COc1cccc2c(N3CCC(O)(C[S@](C)(=N)=O)CC3)ncnc12 [Compound 185b] | 2.8 nM
44 | COc1cc2nccc(N3CCC(CC[S@](C)(=N)=O)CC3)c2cc1Cl [Compound 141b] | 31 nM
45 | COc1cc2ncnc(N3CCC4(CC3)CCN([S@@](=N)(=O)C3CC3)C4)c2cc1OC [Compound 160b] | 1.7 nM
